Reference: patent publication US7767659B2, “Synthesis of naturally occurring ecteinascidins and related compounds” (Pharma Mar, S.A., priority 2002, dated 2010)

Assays:
LNCaP = assay: Inhibition of cells growth by colorimetric assay (SRB); settings: Homo sapiens, LNCaP, 48 h
Description: (§1) This form of the assay employs 96 well cell culture microplates of 9 mm diameter (Faircloth, 1988; Mosmann, 1983). Most of the cell lines are obtained from American Type Culture Collection (ATCC) derived from different human cancer types.
(§2) Cells are maintained in RPMI 1640 10% FBS, supplemented with 0.1 g/l penicillin and 0.1 g/l streptomycin sulfate and then incubated at 37° C., 5% CO2 and 98% humidity. For the experiments, cells were harvested from subconfluent cultures using trypsin and resuspended in fresh medium before plating.
(§3) Cells are seeded in 96 well microtiter plates, at 5×10^3 cells per well in aliquots of 195 μl medium, and they are allowed to attach to the plate surface by growing in drug free medium for 18 hours. Afterward, samples are added in aliquots of 5 μl in a ranging from 10 to 10^−8 μg/ml, dissolved in DMSO/EtOH/PBS (0.5:0.5:99). After 48 hours exposure, the antitumor effect are measured by the SRB methodology: cells are fixed by adding 50 μl of cold 50% (wt/vol) trichloroacetic acid (TCA) and incubating for 60 minutes at 4° C. Plates are washed with deionized water and dried. One hundred μl of SRB solution (0.4% wt/vol in 1% acetic acid) is added to each microtiter well and incubated for 10 minutes at room temperature. Unbound SRB is removed by washing with 1% acetic acid. Plates are air dried and bound stain is solubilzed with Tris buffer. Optical densities are read on a automated spectrophotometric plate reader at a single wavelength of 490 nm.
(§4) The values for mean +/− SD of data from triplicate wells are calculated. Some parameters for cellular responses can be calculated: GI=growth inhibition, TGI=total growth inhibition (cytostatic effect) and LC=cell killing (cytotoxic effect).

SK-BR-3 = assay: as above; settings: Homo sapiens, SK-BR-3, 48 h
Description: as §1, §2, §3, §4

IGROV-1 = assay: as above; settings: Homo sapiens, IGROV-1, 48 h
Description: as §1, §2, §3, §4

HeLa-APL = assay: as above; settings: Homo sapiens, 48 h
Description: as §1, §2, §3, §4

SK-MEL-28 = assay: as above; settings: Homo sapiens, SK-MEL-28, 48 h
Description: as §1, §2, §3, §4

DU-145 = assay: as above; settings: Homo sapiens, DU-145, 48 h
Description: as §1, §2, §3, §4

K-562 = assay: as above; settings: Homo sapiens, K562, 48 h
Description: as §1, §2, §3, §4

LoVo-Dox = assay: as above; settings: Homo sapiens, 48 h
Description: as §1, §2, §3, §4

IGROV-ET = assay: as above; settings: Homo sapiens, 48 h
Description: as §1, §2, §3, §4

HeLa = assay: as above; settings: Homo sapiens, HeLa, 48 h
Description: as §1, §2, §3, §4

PANC-1 = assay: as above; settings: Homo sapiens, PANC-1, 48 h
Description: as §1, §2, §3, §4

HT-29 = assay: cells; settings: Homo sapiens, HT-29, 48 h
Method in brief: (§5)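 Colorimetric SRB read (490 nm) on triplicate wells after 48 h at 37 °C, 5% CO2. Dose range 10 to 10^−8 μg/ml; 5×10^3 cells/well pre-attached 18 h.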

LoVo = assay: cells; settings: Homo sapiens, LoVo, 48 h
Method in brief: as §5

A-549 = assay: cells; settings: Homo sapiens, A549, 48 h
Method in brief: as §5

## COc1cc2c(cc1O)CCN[C@]21C[S+]([O-])[C@@H]2c3c(OC(C)=O)c(C)c4c(c3[C@H](COC1=O)N1C2C2c3c(cc(C)c(OC)c3O)C[C@@H]([C@@H]1O)N2C)OCO4 (stereo partly drawn) [Et-759B]
LNCaP; read-out: LNCAP GI50
  GI50: 4.64 nM
LNCaP; read-out: LNCAP LC50
  CC50: 52.2 nM
LNCaP; read-out: LNCAP TGI
  IC (TGI): 16.7 nM
SK-BR-3; read-out: SK-BR3 GI50
  GI50: 5.37 nM
SK-BR-3; read-out: SK-BR3 LC50
  CC50: 88.1 nM
SK-BR-3; read-out: SK-BR3 TGI
  IC (TGI): 11.6 nM
IGROV-1; read-out: IGROV GI50
  GI50: 22.9 nM
IGROV-1; read-out: IGROV LC50
  CC50: 10000 nM
IGROV-1; read-out: IGROV TGI
  IC (TGI): 65.2 nM
HeLa-APL; read-out: HELA-APL GI50
  GI50: 35.9 nM
HeLa-APL; read-out: HELA-APL LC50
  CC50: 1040 nM
HeLa-APL; read-out: HELA-APL TGI
  IC (TGI): 102 nM
SK-MEL-28; read-out: MEL-28 GI50
  GI50: 19.7 nM
SK-MEL-28; read-out: MEL-28 LC50
  CC50: 123 nM
SK-MEL-28; read-out: MEL-28 TGI
  IC (TGI): 49.1 nM
DU-145; read-out: DU145 GI50
  GI50: 391 nM
DU-145; read-out: DU145 LC50
  CC50: 11900 nM
DU-145; read-out: DU145 TGI
  IC (TGI): 3200 nM
K-562; read-out: K562 GI50
  GI50: 6 nM
K-562; read-out: K562 LC50
  CC50: 12900 nM
K-562; read-out: K562 TGI
  IC (TGI): 37.9 nM
LoVo-Dox; read-out: LOVO-DOX GI50
  GI50: 192 nM
LoVo-Dox; read-out: LOVO-DOX LC50
  CC50: 12900 nM
LoVo-Dox; read-out: LOVO-DOX TGI
  IC (TGI): 625 nM
IGROV-ET; read-out: IGROV-ET GI50
  GI50: 58.2 nM
IGROV-ET; read-out: IGROV-ET LC50
  CC50: 1710 nM
IGROV-ET; read-out: IGROV-ET TGI
  IC (TGI): 273 nM
HeLa; read-out: HELA GI50
  GI50: 21.3 nM
HeLa; read-out: HELA LC50
  CC50: 527 nM
HeLa; read-out: HELA TGI
  IC (TGI): 64.2 nM
PANC-1; read-out: PANC-1 GI50
  GI50: 35.5 nM
PANC-1; read-out: PANC-1 LC50
  CC50: 11000 nM
PANC-1; read-out: PANC-1 TGI
  IC (TGI): 122 nM
HT-29; read-out: HT29 GI50
  GI50: 41.9 nM
HT-29; read-out: HT29 LC50
  CC50: 12900 nM
HT-29; read-out: HT29 TGI
  IC (TGI): 2290 nM
LoVo; read-out: LOVO GI50
  GI50: 327 nM
LoVo; read-out: LOVO LC50
  CC50: 118 nM
LoVo; read-out: LOVO TGI
  IC (TGI): 62.1 nM
A-549; read-out: A549 GI50
  GI50: 26.2 nM
A-549; read-out: A549 LC50
  CC50: 702 nM
A-549; read-out: A549 TGI
  IC (TGI): 61.3 nM
